From patent publication US7951832B2, “Pyrazole derivatives as kinase inhibitors” (Burnham Institute for Medical Research, priority 2007, dated 2011)

target: PI3 K P110α (Homo sapiens, UniProt P42336); test: Inhibition of PI3K (P110α); format: biochemical; conditions: values printed without % sign, read as IC50, read-out: PI3 K (% at 25 μM, or IC50), P110α
Sequence (P42336 whole entry): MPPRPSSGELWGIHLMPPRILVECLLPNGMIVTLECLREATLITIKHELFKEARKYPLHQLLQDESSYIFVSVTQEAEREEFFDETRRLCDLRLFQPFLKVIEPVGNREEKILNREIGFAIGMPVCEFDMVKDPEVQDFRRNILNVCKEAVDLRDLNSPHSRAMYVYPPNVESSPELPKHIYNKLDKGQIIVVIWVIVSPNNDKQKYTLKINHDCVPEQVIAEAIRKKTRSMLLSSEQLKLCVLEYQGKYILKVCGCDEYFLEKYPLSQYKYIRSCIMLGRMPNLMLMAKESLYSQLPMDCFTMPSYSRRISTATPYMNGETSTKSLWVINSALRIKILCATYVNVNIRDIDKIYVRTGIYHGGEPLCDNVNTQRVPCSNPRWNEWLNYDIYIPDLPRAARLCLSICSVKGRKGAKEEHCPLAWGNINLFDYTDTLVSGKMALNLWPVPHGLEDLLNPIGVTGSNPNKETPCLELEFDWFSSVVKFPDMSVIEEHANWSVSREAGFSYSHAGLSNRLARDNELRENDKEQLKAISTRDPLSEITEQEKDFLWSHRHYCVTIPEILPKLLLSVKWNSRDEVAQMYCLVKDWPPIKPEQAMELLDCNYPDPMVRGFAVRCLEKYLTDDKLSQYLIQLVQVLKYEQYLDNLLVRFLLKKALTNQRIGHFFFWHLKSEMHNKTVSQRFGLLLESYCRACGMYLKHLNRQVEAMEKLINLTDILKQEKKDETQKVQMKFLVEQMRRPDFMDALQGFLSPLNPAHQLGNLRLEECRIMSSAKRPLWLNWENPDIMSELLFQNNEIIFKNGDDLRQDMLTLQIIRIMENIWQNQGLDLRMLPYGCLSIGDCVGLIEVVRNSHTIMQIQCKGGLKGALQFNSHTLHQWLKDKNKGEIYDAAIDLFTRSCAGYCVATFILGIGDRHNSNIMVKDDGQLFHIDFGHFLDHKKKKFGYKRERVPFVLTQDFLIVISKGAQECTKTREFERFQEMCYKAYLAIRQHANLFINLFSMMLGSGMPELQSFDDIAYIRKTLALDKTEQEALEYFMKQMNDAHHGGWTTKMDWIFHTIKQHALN
Sequence (P27986 whole entry partner): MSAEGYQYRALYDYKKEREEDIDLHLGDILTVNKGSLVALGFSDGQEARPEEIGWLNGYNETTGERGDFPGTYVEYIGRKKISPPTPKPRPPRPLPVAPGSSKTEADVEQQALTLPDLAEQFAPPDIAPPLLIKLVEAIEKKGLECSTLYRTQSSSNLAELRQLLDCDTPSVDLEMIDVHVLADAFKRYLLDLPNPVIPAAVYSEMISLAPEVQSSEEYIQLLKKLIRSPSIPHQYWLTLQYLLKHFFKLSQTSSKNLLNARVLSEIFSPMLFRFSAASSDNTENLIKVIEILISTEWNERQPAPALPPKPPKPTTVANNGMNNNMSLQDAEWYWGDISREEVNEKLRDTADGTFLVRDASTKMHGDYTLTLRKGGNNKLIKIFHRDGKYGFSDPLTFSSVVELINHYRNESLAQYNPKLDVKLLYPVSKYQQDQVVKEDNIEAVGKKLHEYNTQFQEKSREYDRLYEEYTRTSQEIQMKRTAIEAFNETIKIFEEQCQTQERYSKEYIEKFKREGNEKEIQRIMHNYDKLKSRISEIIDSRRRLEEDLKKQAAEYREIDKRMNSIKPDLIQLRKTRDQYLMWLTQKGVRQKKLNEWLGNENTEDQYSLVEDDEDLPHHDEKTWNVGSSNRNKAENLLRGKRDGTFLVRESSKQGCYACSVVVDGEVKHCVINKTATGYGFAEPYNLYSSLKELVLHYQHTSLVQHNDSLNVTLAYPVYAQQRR

IC50	SMILES
83 nM	Nc1ccc(C#Cc2n[nH]c3ccccc23)cc1
62 nM	Cn1cncc1C#Cc1n[nH]c2ccccc12
82 nM	COc1ccc(C(NC(=O)c2ccc3c(C#Cc4cncn4C)n[nH]c3c2)c2ccncc2)cc1 (stereo not shown)

target: mTOR (Homo sapiens, UniProt P42345); test: Inhibition of mTOR; format: biochemical; conditions: IC50

IC50	SMILES
> 100000 nM	Cn1cncc1C#Cc1n[nH]c2ccccc12
31000 nM	O=C(O)c1ccc(C#Cc2n[nH]c3ccccc23)cc1

same assay, conditions: read-out: mTOR (Inhibition % at 50 μM, or IC50); inhibition at 50 μM

SMILES	inhibition at 50 µM
Nc1ccc(C#Cc2n[nH]c3ccccc23)cc1	9%
C(#Cc1n[nH]c2ccccc12)c1ccccc1	6%
Fc1cc(F)cc(C#Cc2n[nH]c3ccccc23)c1	6%
C(#Cc1n[nH]c2ccccc12)c1ccncc1	30%
COc1ccc2cc(C#Cc3n[nH]c4ccccc34)ccc2c1	5%
FC(F)(F)c1cc(C#Cc2n[nH]c3ccccc23)cc(C(F)(F)F)c1	-3%
C(#Cc1n[nH]c2ccccc12)c1ccsc1	7%
N#Cc1ccc(C#Cc2n[nH]c3ccccc23)cc1	1%
Nc1cccc(C#Cc2n[nH]c3ccccc23)c1	9%
C(#CC1CCCC1)c1n[nH]c2ccccc12	3%
C(#CC1CC1)c1n[nH]c2ccccc12	2%
COc1ccc(C#Cc2n[nH]c3ccccc23)cc1	5%
CC(C)(C)OC(=O)NCCCCCNC(=O)c1ccc(C#Cc2n[nH]c3ccccc23)cc1	-6%
C(#Cc1n[nH]c2ncccc12)c1ccncc1	15%
C(#Cc1n[nH]c2ncccc12)c1ccccn1	7%

Continued, values first:

inhibition at 50 µM	SMILES
34%	C(#Cc1n[nH]c2ccccc12)c1cccnc1
46%	Cn1cncc1C#Cc1n[nH]c2ccccc12
-1%	O=[N+]([O-])c1ccc2c(C#Cc3ccccc3)n[nH]c2c1
13%	C(#Cc1n[nH]c2ccccc12)c1ccccn1
4%	COC(=O)c1ccc2c(C#Cc3cncn3C)n[nH]c2c1
24%	Cn1cncc1C#Cc1n[nH]c2cc(C(=O)O)ccc12
3%	Cn1cncc1C#Cc1n[nH]c2cc(C(=O)NCc3cc4ccccc4[nH]3)ccc12
-7%	Cc1ccc2[nH]c(C(C)NC(=O)c3ccc4c(C#Cc5cncn5C)n[nH]c4c3)nc2c1 (stereo not shown)
-27%	Cn1cncc1C#Cc1n[nH]c2cc(C(=O)NC(c3ccncc3)c3ccc(Cl)cc3)ccc12 (stereo not shown)
-14%	Cn1cncc1C#Cc1n[nH]c2cc(C(=O)NCc3cccs3)ccc12
-5%	Cn1cncc1C#Cc1n[nH]c2cc(C(=O)NCc3ccco3)ccc12
-11%	Cn1cncc1C#Cc1n[nH]c2cc(C(=O)NC34CC5CC(CC(C5)C3)C4)ccc12
-17%	Cn1cncc1C#Cc1n[nH]c2cc(C(=O)NCc3ccccn3)ccc12
3%	NCCCCCNC(=O)c1ccc(C#Cc2n[nH]c3ccccc23)cc1
